Counter-ions that a name gives are not always drawn. Like-named read-outs stand apart in the source and are kept apart here.
How the values were obtained:
Type in all cases: in vivo, SD rats
[1] = tested on: rat subcutaneous infiltration model; assay: Local anesthetic effect by subcutaneous infiltration, Von Frey needle stimulation of back skin
sciatic nerve of the rat = tested on: sciatic nerve of the rat
Description: The experimental methods described in the following test examples were standard procedures unless otherwise specified. All experimental animals used in the following test examples were SD rats purchased from Hunan Slac Jingda Experimental Animal Co., Ltd. Other test materials, unless stated otherwise, were purchased from conventional biochemical reagent suppliers.
The compounds listed in Table 1 and levobupivacaine hydrochloride (positive control) were administered to three groups of rats fully acclimated to the experimental environment, with one rat per group.
Solution Preparation: 2 mg/ml Levobupivacaine Hydrochloride Injection: 2.670 ml of 7.5 mg/ml levobupivacaine hydrochloride injection (Batch No. 92S0702) was pipetted into a 10 ml volumetric flask. 0.9% NaCl solution was added until the meniscus was level with the calibration line, and the solution was inverted and mixed thoroughly, to prepare 2 mg/ml levobupivacaine hydrochloride injection. 2 mg/ml Example Compound Solution: 6.6 mg of the example compound was accurately weighed and dissolved in 3.3 ml of 0.9% NaCl solution to prepare a 2 mg/ml example compound solution.
Both the positive control and the example compound were administered to each rat at 2 mg/ml, with an administration volume of 5 ml/kg, in a single injection near the sciatic nerve of the rat. After the administration, the rat was placed on a preheated hot plate (50±0.1° C.) of an intelligent hot plate instrument. […] The maximum thermal latency was controlled at 60 s. […] Any urine or feces on the hot plate was promptly cleaned and dried before subsequent tests.
Thermal latency results were expressed as the maximum proportional effect (MPE), calculated using the following formula.
Wherein: B represented the basal thermal latency of the rats; P was the maximum thermal latency C was the observed thermal latency at the detection time point.
Measurements were considered invalid if the MPE was less than 50% of the maximum proportional effect. If two consecutive measurements yielded an MPE of less than […], the experiment was terminated.

[2] = tested on: rat subcutaneous infiltration model; assay: Local anesthetic effect by subcutaneous infiltration, Von Frey needle stimulation of back skin; remark: listed apart in the source
Description: After shaving and disinfecting the backs of SD rats (half male and half female) weighing 190-210 grams, a circle with a diameter of approximately 1.5 cm was drawn on one side of the exposed skin. 0.5 mL of a solution containing the drug was subcutaneously injected into the skin in the center. The solution, using physiological saline as the solvent, contained either 2 mg/ml bupivacaine hydrochloride or 1 mg/ml concentration of the compounds listed in Table 2 of the present application. Each group consisted of 10 rats. A Von Frey fiber with a 100-gram force was attached to a needle for local skin stimulation. One minute after drug administration, the rat's response to the stimulus was measured. Testing was conducted at 6 different points within the marked area of drug administration. Skin contraction, avoidance, and other behaviors following stimulation were observed and recorded. Three points in the center and three points around the circle were stimulated, and the number of skin contraction and avoidance behaviors was recorded as N6. […] Each compound was tested on 10 rats.

[3] = 2 mg/ml, 5 ml/kg, single injection near the sciatic nerve of the rat, hot plate 50±0.1° C.
[4] = 1 mg/ml, 0.5 mL subcutaneous injection on the back, 10 rats

| Compound | Duration/h ([1]; Drug Concentration 0.3 mmol/L) [h] | Duration/h ([1]; Drug Concentration 1 mmol/L) [h] | Onset Time/min (sciatic nerve of the rat; [3]) [min] | Duration/h [2, 4] [h] | Onset Time/min [2, 4] [min] | Duration/h (sciatic nerve of the rat; [3]) [h] | Duration/h (sciatic nerve of the rat; rat, in vivo) [h] | Onset Time/min (sciatic nerve of the rat; rat, in vivo) [min] | Duration/h ([2]; Drug Concentration 6.9 mmol/L, subcutaneous infiltration) [h] | Duration/h ([2]; control at 2 mg/ml (6.9 mmol/L), 0.5 mL subcutaneous injection on the back) [h] |
| --- | --- | --- | --- | --- | --- | --- | --- | --- | --- | --- |
| CCCC[N+]1(CCCCNc2ccc(F)cc2)CCCC[C@H]1C(=O)Nc1c(C)cccc1C (stereo partly drawn) [Compound of Example 3, (2S)-1-Butyl-2-((2,6-dimethylphenyl)carbamoyl)-1-(4-(p-fluorophenylamino)butyl)piperidine bromide] | 24 to 48 | 48 to 72 | 1 | 72 to 96 | 1 | – | – | – | – | – |
| CCCC[N+]1(CCCCOc2cccc(C)c2)CCCC[C@H]1C(=O)Nc1c(C)cccc1C (stereo partly drawn) [Compound of Example 5, (2S)-1-Butyl-2-((2,6-dimethylphenyl)carbamoyl)-1-(4-(m-tolyloxy)butyl)piperidine bromide] | 24 to 48 | 48 to 72 | 1 | 72 to 96 | 1 | 48 to 72 | – | – | – | – |
| CCCC[N+]1(CCCCCN2CCn3cccc3C2c2ccccc2)CCCC[C@H]1C(=O)Nc1c(C)cccc1C (stereo partly drawn) [Compound of Example 13, (2S)-1-Butyl-2-((2,6-dimethylphenyl)carbamoyl)-1-(5-1-phenyl-3,4-dihydropyrrolo[1,2-a]pyrazin-2(1H)-yl)pentyl)piperidine bromide] | – | – | 1 | 48 to 72 | 1 | 24 to 48 | – | – | – | – |
| CCCC[N+]1(CCCCCOc2ccccc2)CCCC[C@H]1C(=O)Nc1c(C)cccc1C (stereo partly drawn) [Compound of Example 14, (2S)-1-Butyl-2-((2,6-dimethylphenyl)carbamoyl)-1-(5-(phenoxy)pentyl)piperidine bromide] | – | – | – | 48 to 72 | 2 | – | 24 to 48 | 2 | – | – |
| CCCC[N+]1(CCCCCOc2cccc(C)c2)CCCC[C@H]1C(=O)Nc1c(C)cccc1C (stereo partly drawn) [Compound of Example 15, (2S)-1-Butyl-2-((2,6-dimethylphenyl)carbamoyl)-1-(5-(m-tolyloxy)pentyl)piperidine bromide] | – | – | 1 | 48 to 72 | 1 | 24 to 48 | – | – | – | – |
| CCCC[N+]1(CCCCCOc2cc(F)ccc2N)CCCC[C@H]1C(=O)Nc1c(C)cccc1C (stereo partly drawn) [Compound of Example 16, (2S)-1-(5-(2-amino-5-fluorophenoxy)pentyl)-1-butyl-2-((2,6-dimethylphenyl)carbamoyl)piperidine bromide] | – | – | 1 | 48 to 72 | 1 | 24 to 48 | – | – | – | – |
| CCCC[N+]1(CCC(C)CCNc2ccc(F)cc2)CCCC[C@H]1C(=O)Nc1c(C)cccc1C (stereo partly drawn) [Compound of Example 18, (2S)-1-Butyl-2-((2,6-dimethylphenyl)carbamoyl)-1-(5-(((4-fluorophenyl)amino)-3-methylpentyl)piperidine bromide] | – | – | 2 | 24 to 28 | 2 | 17 | – | – | – | – |
| CCCC[N+]1(CCCCOc2ccc(F)cc2)CCCC[C@H]1C(=O)Nc1c(C)cccc1C (stereo partly drawn) [Compound of Example 24, (2S)-1-Butyl-2-((2,6-dimethylphenyl)carbamoyl)-1-(4-(4-fluorophenoxy)butyl)piperidine bromide] | – | – | 1 | 48 to 72 | 1 | – | – | – | – | – |
| CCCC[N+]1(CCCCOc2cccc(F)c2)CCCC[C@H]1C(=O)Nc1c(C)cccc1C (stereo partly drawn) [Compound of Example 26, (2S)-1-Butyl-2-((2,6-dimethylphenyl)carbamoyl)-1-(4-(3-fluorophenoxy)butyl)piperidine bromide] | – | – | 1 | 48 to 72 | 1 | 24 to 42 | – | – | – | – |
| CCCC[N+]1(CCCCOc2cccc(C#N)c2)CCCC[C@H]1C(=O)Nc1c(C)cccc1C (stereo partly drawn) [Compound of Example 27, (2S)-1-Butyl-1-(4-(3-cyanophenoxy)butyl)-2-((2,6-dimethylphenyl)carbamoyl)piperidine bromide] | – | – | 1 | 48 to 72 | 1 | 24 to 48 | – | – | – | – |
| CCCC[N+]1(CCCCOc2cccc(C(F)(F)F)c2)CCCC[C@H]1C(=O)Nc1c(C)cccc1C (stereo partly drawn) [Compound of Example 28, (2S)-1-Butyl-2-((2,6-dimethylphenyl)carbamoyl)-1-(4-(3-(trifluoromethyl)phenoxy)butyl) piperidine bromide] | – | – | 1 | 48 to 72 | 1 | 24 to 48 | – | – | – | – |
| CCCC[N+]1(CCCCOc2ccc(C)cc2)CCCC[C@H]1C(=O)Nc1c(C)cccc1C (stereo partly drawn) [Compound of Example 31, (2S)-1-Butyl-2-((2,6-dimethylphenyl)carbamoyl)-1-(4-(p-tolyloxy)butyl)piperidine bromide] | – | – | 1 | 48 to 72 | 1 | 24 to 30 | – | – | – | – |
| Cc1cccc(C)c1NC(=O)[C@@H]1CCCC[N+]1(CCCCOc1ccccc1)CC1CCCC1 (stereo partly drawn) [Compound of Example 36, (2S)-1-(Cyclopentylmethyl)-2-((2,6-dimethylphenyl)carbamoyl)-1-(4-phenoxybutyl)piperidine bromide] | – | – | 1 | 48 to 72 | 1 | 30 to 48 | – | – | – | – |
| Cc1cccc(C)c1NC(=O)[C@@H]1CCCC[N+]1(CCCCOc1ccccc1)CCCC(C)C (stereo partly drawn) [Compound of Example 38, (2S)-2-((2,6-Dimethylphenyl)carbamoyl)-1-(4-methylpentyl)-1-(4-phenoxybutyl)piperidine bromide] | – | – | – | 48 to 72 | 1 | – | 48 to 72 | 1 | – | – |
| CCCC[N+]1(CCCCOc2ccccc2)CCCC[C@H]1C(=O)Nc1c(Br)cccc1Br (stereo partly drawn) [Compound of Example 40, (2S)-1-Butyl-2-((2,6-dibromophenyl)carbamoyl)-1-(4-phenoxybutyl)piperidine bromide] | – | – | – | 48 to 72 | 1 | – | 32 to 48 | 1 | – | – |
| CCCC[N+]1(CCCCOc2cccc3c2OC(C)(C)C3)CCCC[C@H]1C(=O)Nc1c(C)cccc1C (stereo partly drawn) [Compound of Example 44, (2S)-1-Butyl-1-(4-((2,2-dimethyl-2,3-dihydrobenzofuran-7-yl)oxy)butyl)-2-((2,6-dimethylphenyl)carbamoyl)piperidine bromide] | – | – | 1 | 48 to 72 | 1 | – | – | – | – | – |
| CCCCN1CCCC[C@H]1C(=O)Nc1c(C)cccc1C [Levobupivacaine Hydrochloride, reference compound] | – | – | – | – | – | 3 | – | – | 3 | 3 |
| (2S)-1-Butyl-2-((4-fluorophenyl)carbamoyl)-1-(4-(m-tolyloxy)butyl)piperidine bromide [Compound of Example 22] | – | – | 1 | 48 to 72 | 1 | 48 to 72 | – | – | – | – |

Reference: US20250326755A1, “CYCLIC QUATERNARY AMMONIUM SALT COMPOUND, AND PREPARATION METHOD THEREFOR AND USE THEREOF” (YICHANG HUMANWELL PHARMACEUTICAL CO., LTD., priority 2022, published 2025)
